Measurements: PubChem BioAssay AID1963865 (Molecular Pharmacology Branch, DTP, NCI, 2024)

System: KRAS PDC multicell spheroid viability
Experiment: Anticancer human tumor 825966-067-R-J1-PDC patient-derived colon carcinoma cell line growth inhibition [KRAS2]
Conditions: for IC50: curve of first compound; for viability, T/C: stronger effect = lower value
Text: Multicellular complex tumor spheroid response to RAS pathway inhibitors in combination with a targeted agents in patient-derived cell lines with oncogenic KRAS variants from multiple cancer types
A high-throughput screen of multi-cell type tumor spheroids was designed to identify active combinations of targeted small molecules and KRAS pathway inhibitors. Complex spheroids include a stromal component modeled by human endothelial cells (HUVEC) and fibroblasts modeled by human mesenchymal stem cells (MSCs). The concentration ranges selected for each drug and investigational agent were based upon clinically achievable concentrations if the clinical Cmax of the agent was known.
Compounds. The drugs and investigational agents: BI-3406 (NSC825286), BAY-293 (NSC824723), batoprotafib (TNO155; NSC825523), sotorasib (AMG 510; NSC818433), MRTX1257 (NSC819558), elimusertib (BAY 1895344; NSC800525), molibresib (GSK525762; NSC774829), temuterkib (LY3214996; NSC803410), venetoclax (NSC766270), alisertib (NSC759677), olaparib (NSC753686), talazoparib (NSC767125), erdafitinib (NSC781556), ipatasertib (NSC767898), cabozantinib (NSC761068), nintedanib (NSC756659), abemaciclib (NSC768073), docetaxel (NSC628503), trametinib (NSC758246), and sapanisertib (NSC764658) were obtained from the National Cancer Institute (NCI) Developmental Therapeutics Program Chemical Repository. The FDA-approved anticancer drug set is available from the Developmental Therapeutics Program. […] The stock solutions were prepared in dimethyl sulfoxide (DMSO, Sigma-Aldrich, St. Louis, MO, cat. D2650) at 800-fold the tested concentration and stored at -70 degrees C prior to their use. All drugs and investigational agents were tested over a range starting from a high concentration at or near the clinical Cmax and decreasing in half-log increments. If the clinical Cmax for an agent had not been determined, the highest concentration tested was 10 microM.
Cell Culture. All cells were maintained in an incubator at 37 degrees C and 5% CO2 with 95% humidity. The PDC lines were cultured according to standard operating procedures established by the NCI PDMR (https://pdmr.cancer.gov/sops/default.htm). Briefly, all PDCs were thawed and cultured in Matrigel-coated flasks prepared with a working solution of 1X Ham's F-12 nutrient mix, without supplementation (Invitrogen, Waltham, MA, cat. 11765054), 100 U/mL penicillin-streptomycin (Invitrogen, cat. 15140122), and 2.5% Matrigel (Corning Inc., Corning, NY, cat. 354248) for the first three passages. All PDCs were cultured in complete DMEM/F-12 media containing advanced DMEM/F-12 (Invitrogen, cat. 12634028), 4.9% defined fetal bovine serum, heat inactivated (HyClone Laboratories Inc., Logan, UT, cat. SH30070.03HI), 389 ng/mL hydrocortisone (Sigma-Aldrich, cat. H4001), 9.7 ng/mL human EGF recombinant protein (Invitrogen, cat. PHG0313), 23.4 microg/mL adenine (Sigma-Aldrich, cat. A2786), 97.3 U/mL penicillin-streptomycin (Invitrogen, cat. 15140122), 1.9 mM L-glutamine (Invitrogen, cat. 25030081), and 9.7 microM Y-27632 dihydrochloride (Tocris Bioscience, Bristol, United Kingdom, cat. 1254). The PDCs were cultured in complete DMEM/F12 media without 9.7 microM Y-27632 dihydrochloride for at least two passages prior to the screen. The established cell line HOP-62 was cultured in RPMI 1640 medium, HEPES (Invitrogen, cat. 22400105) with 10% defined fetal bovine serum (HyClone Laboratories Inc., cat. SH30070.03) and 2 mM L-glutamine (Invitrogen, cat. 25030081). The pooled donor HUVEC were cultured in endothelial cell growth medium 2 (PromoCell, Heidelberg, Germany, cat. C-22011) and the hMSC were cultured in mesenchymal stem cell growth medium 2 (PromoCell, cat. C-28009). For all experiments, HUVEC and hMSC were used at passages </=5, while the malignant cell lines were used at passages </=15. […]

[1] = second compound 0.1 µM, first compound 0.0316 µM
[2] = second compound 0.1 µM, first compound 0.1 µM
[3] = second compound 0.1 µM, first compound 0.316 µM
[4] = second compound 0.1 µM, first compound 1 µM
[5] = second compound 0.1 µM, first compound 3.16 µM
[6] = second compound 0.1 µM, first compound 10 µM
[7] = second compound 0.316 µM, first compound 0.0316 µM
[8] = second compound 0.316 µM, first compound 0.1 µM
[9] = second compound 0.316 µM, first compound 0.316 µM
[10] = second compound 0.316 µM, first compound 1 µM
[11] = second compound 0.316 µM, first compound 3.16 µM
[12] = second compound 0.316 µM, first compound 10 µM
[13] = second compound 1 µM, first compound 0.0316 µM
[14] = second compound 1 µM, first compound 0.1 µM
[15] = second compound 1 µM, first compound 0.316 µM
[16] = second compound 1 µM, first compound 1 µM
[17] = second compound 1 µM, first compound 3.16 µM
[18] = second compound 1 µM, first compound 10 µM
[19] = second compound 3.16 µM, first compound 0.0316 µM
[20] = second compound 3.16 µM, first compound 0.1 µM
[21] = second compound 3.16 µM, first compound 0.316 µM
[22] = second compound 3.16 µM, first compound 1 µM
[23] = second compound 3.16 µM, first compound 3.16 µM
[24] = second compound 3.16 µM, first compound 10 µM
[25] = second compound 10 µM, first compound 0.0316 µM
[26] = second compound 10 µM, first compound 0.1 µM
[27] = second compound 10 µM, first compound 0.316 µM
[28] = second compound 10 µM, first compound 1 µM
[29] = second compound 10 µM, first compound 3.16 µM
[30] = second compound 10 µM, first compound 10 µM
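Further: spheroids exposed to compounds for 7 days.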
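Wherever viability, T/C is given: 100% = DMSO vehicle control viability.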

SMILES	IC50 (second compound 0.1 µM) [nM]	IC50 (second compound 0.316 µM) [nM]	IC50 (second compound 1 µM) [nM]	IC50 (second compound 3.16 µM) [nM]	IC50 (second compound 10 µM) [nM]	viability, T/C [1] [%]	viability, T/C [2] [%]	viability, T/C [3] [%]	viability, T/C [4] [%]	viability, T/C [5] [%]	viability, T/C [6] [%]	viability, T/C [7] [%]	viability, T/C [8] [%]	viability, T/C [9] [%]	viability, T/C [10] [%]	viability, T/C [11] [%]	viability, T/C [12] [%]	viability, T/C [13] [%]	viability, T/C [14] [%]	viability, T/C [15] [%]	further results
CCNC(=O)CC1N=C(c2ccc(Cl)cc2)c2cc(OC)ccc2-n2c(C)nnc21 (stereo not given) + COc1cc2nc(C)nc(NC(C)c3cc(N)cc(C(F)(F)F)c3)c2cc1OC1CCOC1	> 10000	> 10000	> 10000	2460	55.6	97.2	119	104	80.3	73.4	69.1	97.6	111	98.2	75.2	59.9	69.1	101	109	118	viability, T/C [16]: 77.1%; viability, T/C [17]: 98.8%; viability, T/C [18]: 70.8%; viability, T/C [19]: 131%; viability, T/C [20]: 97.6%; viability, T/C [21]: 114%; viability, T/C [22]: 71.7%; viability, T/C [23]: 41%; viability, T/C [24]: 47%; viability, T/C [25]: 77.8%; viability, T/C [26]: 19%; viability, T/C [27]: 17.4%; viability, T/C [28]: 8.42%; viability, T/C [29]: 13.1%; viability, T/C [30]: 1.45%
COC(=O)c1ccc2c(C(=Nc3ccc(N(C)C(=O)CN4CCN(C)CC4)cc3)c3ccccc3)c(O)[nH]c2c1 + CC1OCC2(CCN(c3cnc(Sc4ccnc(N)c4Cl)c(N)n3)CC2)C1N	739	1610	611	570	< 31.6	100	77.4	83.1	38.8	0.34	0.23	83.5	85.1	84.3	88.5	0.25	0.21	96	83.1	92.5	viability, T/C [16]: 19.6%; viability, T/C [17]: 0.22%; viability, T/C [18]: 0.2%; viability, T/C [19]: 89.7%; viability, T/C [20]: 92.2%; viability, T/C [21]: 86.4%; viability, T/C [22]: 15.2%; viability, T/C [23]: 0.17%; viability, T/C [24]: 0.19%; viability, T/C [25]: 24.4%; viability, T/C [26]: 32.6%; viability, T/C [27]: 5.99%; viability, T/C [28]: 2.24%; viability, T/C [29]: 0.2%; viability, T/C [30]: 0.32%
